A value given as a limit tells only on which side of the number the result lay.

In one experiment the target is EZH2 (Homo sapiens, UniProt Q15910). Description: EZH2 assay: rPRC2 with biotinylated oligonucleosome substrates and 3H SAM, FlashPlate scintillation counting, IC50. The experiment is classed as biochemical.
Chain of EZH2 (Q15910 whole entry): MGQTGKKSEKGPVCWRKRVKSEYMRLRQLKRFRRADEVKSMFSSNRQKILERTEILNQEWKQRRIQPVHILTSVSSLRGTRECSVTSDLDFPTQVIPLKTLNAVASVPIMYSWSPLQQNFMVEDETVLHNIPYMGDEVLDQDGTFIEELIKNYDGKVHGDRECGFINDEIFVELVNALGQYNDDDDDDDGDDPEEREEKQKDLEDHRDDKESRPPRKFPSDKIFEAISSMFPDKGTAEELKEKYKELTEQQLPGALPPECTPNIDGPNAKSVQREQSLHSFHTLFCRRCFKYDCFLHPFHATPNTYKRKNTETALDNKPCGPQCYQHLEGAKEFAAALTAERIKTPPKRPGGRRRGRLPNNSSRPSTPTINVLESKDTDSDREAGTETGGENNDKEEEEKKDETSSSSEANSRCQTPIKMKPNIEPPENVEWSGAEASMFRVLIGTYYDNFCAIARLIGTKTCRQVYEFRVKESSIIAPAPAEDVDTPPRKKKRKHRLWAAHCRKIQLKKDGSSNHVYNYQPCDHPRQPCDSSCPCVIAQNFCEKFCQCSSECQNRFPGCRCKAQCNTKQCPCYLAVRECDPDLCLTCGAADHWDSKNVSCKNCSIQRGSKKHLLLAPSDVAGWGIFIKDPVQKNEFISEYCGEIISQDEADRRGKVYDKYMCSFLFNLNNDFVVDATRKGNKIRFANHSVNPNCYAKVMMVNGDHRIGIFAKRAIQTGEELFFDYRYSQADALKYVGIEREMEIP
Chain of EZH2 (O75530 whole entry partner): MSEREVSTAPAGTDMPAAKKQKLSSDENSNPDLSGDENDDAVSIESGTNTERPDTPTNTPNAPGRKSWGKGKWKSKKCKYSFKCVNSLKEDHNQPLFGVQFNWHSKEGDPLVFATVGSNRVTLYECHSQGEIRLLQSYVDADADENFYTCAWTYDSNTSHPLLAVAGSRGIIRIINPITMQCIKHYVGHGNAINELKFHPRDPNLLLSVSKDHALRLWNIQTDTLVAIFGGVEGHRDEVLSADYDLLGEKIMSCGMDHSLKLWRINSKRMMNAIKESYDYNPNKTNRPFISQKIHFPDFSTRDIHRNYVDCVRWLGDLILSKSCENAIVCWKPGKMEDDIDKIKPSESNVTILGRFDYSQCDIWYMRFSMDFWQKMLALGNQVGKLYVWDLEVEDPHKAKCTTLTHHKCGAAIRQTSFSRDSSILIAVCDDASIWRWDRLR
Chain of EZH2 (Q15022 whole entry partner): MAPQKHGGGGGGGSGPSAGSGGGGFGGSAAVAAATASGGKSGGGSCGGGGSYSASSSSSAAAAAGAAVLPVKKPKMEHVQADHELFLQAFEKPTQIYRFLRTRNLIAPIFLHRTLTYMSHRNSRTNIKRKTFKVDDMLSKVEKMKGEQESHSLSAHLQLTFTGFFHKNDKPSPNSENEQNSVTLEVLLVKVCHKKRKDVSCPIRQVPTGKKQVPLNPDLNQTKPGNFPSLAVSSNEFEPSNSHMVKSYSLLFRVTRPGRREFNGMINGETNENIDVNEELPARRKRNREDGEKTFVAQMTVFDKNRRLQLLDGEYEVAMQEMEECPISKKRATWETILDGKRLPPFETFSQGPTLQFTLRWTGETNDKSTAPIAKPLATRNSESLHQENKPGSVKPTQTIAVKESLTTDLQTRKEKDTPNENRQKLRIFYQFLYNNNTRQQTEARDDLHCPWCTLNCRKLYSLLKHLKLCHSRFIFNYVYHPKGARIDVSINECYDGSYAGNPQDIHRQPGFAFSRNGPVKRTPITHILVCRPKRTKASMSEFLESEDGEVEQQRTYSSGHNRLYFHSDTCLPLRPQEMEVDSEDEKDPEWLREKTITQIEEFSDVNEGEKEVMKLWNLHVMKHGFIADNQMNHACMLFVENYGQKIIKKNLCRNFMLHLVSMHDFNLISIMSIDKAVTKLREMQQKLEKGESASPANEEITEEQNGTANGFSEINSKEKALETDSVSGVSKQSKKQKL
Conditions: not given
The essentials:
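IC50 from 4-parameter fit, baselines fixed at 0 and 100%. Compounds (top 80 uM, 2-fold series to 0.16 uM) pre-incubated 20 min with 2 nM EZH2-PRC2; 60-min methylation in pH 8.5 Tris with 0.2 uM 3H SAM, 0.2 uM oligonucleosomes, 3.6 uM H3K27me3 peptide.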
For orientation: IC50 means the concentration that inhibits the measured activity by half. In the case of `CC1(C)CC(NC(=O)c2ccc(Oc3ccccc3C#N)c(Cl)c2)CC(C)(C)N1[O]` [Compound I-402], the concentration for half-maximal inhibition (IC50) is > 80 µM.

The experiment is the same for the next values; noted with them: rPRC2, biotinylated oligonucleosome substrates, 3H SAM; read-out: EZH2 IC50.
With `CC1(C)CC(NC(=O)c2ccc(OC3CCNCC3)c(Cl)c2)CC(C)(C)N1` [Compound I-382], the IC50 is > 80 µM. On the same count and under the same terms, in the case of `Cc1cccc(Oc2ccc(C(=O)NC3CC(C)(C)NC(C)(C)C3)cc2Cl)c1-c1ccncc1` [Compound I-383] it was 20 to 80 µM; in that of `CC1(C)CC(NC(=O)c2ccc(N3CCOc4ccccc43)c(Cl)c2)CC(C)(C)N1` [Compound I-384], 20 to 80 µM; in that of `CC1(C)CC(NC(=O)c2ccc(Oc3cccc(-c4cnn(CC(N)=O)c4)c3C#N)c(Cl)c2)CC(C)(C)N1` [Compound I-386], < 5 µM. For the molecule `CNC(=O)Cn1cc(-c2cccc(Oc3ccc(C(=O)NC4CC(C)(C)NC(C)(C)C4)cc3Cl)c2C#N)cn1` [Compound I-387], the IC50 was < 5 µM.

Regarding `CC1(C)CC(NC(=O)c2ccc(Oc3ccccc3C(N)=O)c(Br)c2)CC(C)(C)N1` [Compound I-388], the IC50 lay in the range of 5 to 20 µM. On the same count and under the same terms, in the case of `COC(=O)C1CC(NC(=O)c2ccc(Oc3ccccc3C#N)c(Cl)c2)CCN1` (centres unmarked) [Compound I-389] it was > 80 µM. `Cn1cncc1COc1ccc(C(=O)NC2CC(C)(C)NC(C)(C)C2)cc1Cl` [Compound I-390]: the half-inhibitory concentration (IC50) was > 80 µM.

In the case of `CC1(C)CC(NC(=O)c2ccc(Oc3cccc(N4CCOCC4)c3C#N)c(Cl)c2)CC(C)(C)N1` [Compound I-391], the IC50 is < 5 µM. As to `CC1(C)CC(NC(=O)c2ccc(OC3CNC3)c(Cl)c2)CC(C)(C)N1` [Compound I-392], the IC50 was > 80 µM. On the same count and under the same terms, in the case of `CC1(C)CC(NC(=O)c2ccc(OC3CCCNC3)c(Cl)c2)CC(C)(C)N1` (centres unmarked) [Compound I-393] it was > 80 µM; in that of `CC1(C)CC(NC(=O)c2ccc(Oc3cccc(C(N)=O)c3C#N)c(Cl)c2)CC(C)(C)N1` [Compound I-394], 5 to 20 µM; in that of `CC1(C)CC(NC(=O)c2ccc(N3CC(c4ccccc4)CC3=O)c(Cl)c2)CC(C)(C)N1` (centres unmarked) [Compound I-396], > 80 µM. Same read-out and setting: the result for `CC(O)c1cccc(Oc2ccc(C(=O)NC3CC(C)(C)NC(C)(C)C3)cc2Cl)c1Br` (centres unmarked) [Compound I-399] reads < 5 µM; that for `CC(O)c1cccc(Oc2ccc(C(=O)NC3CC(C)(C)NC(C)(C)C3)cc2Cl)c1-c1ccncc1` (centres unmarked) [Compound I-400], 5 to 20 µM; that for `N#Cc1ccccc1Oc1ccc(C(=O)NC2CCNC(=O)C2)cc1Cl` (centres unmarked) [Compound I-403], > 80 µM. Regarding `CC1(C)CNCCC1NC(=O)c1ccc(Oc2ccccc2C#N)c(Cl)c1` (centres unmarked) [Compound I-406], the IC50 is > 80 µM. As to `N#Cc1c(Br)cccc1Oc1ccc(C(=O)NC2CCNCC2)cc1Cl` [Compound I-407], the half-inhibitory concentration (IC50) was > 80 µM.

Take `N#Cc1ccccc1Oc1ccc(C(=O)N[C@H]2C[C@H]3CC[C@@H](C2)N3)cc1Cl` [Compound I-408]: the concentration for half-maximal inhibition (IC50) is > 80 µM. On the same count and under the same terms, in the case of `CC1(C)CC(NC(=O)c2ccc(Oc3ccccc3C#N)c(Cl)c2)CC(c2ccccc2)N1` (centres unmarked) [Compound I-409] it was 20 to 80 µM; in that of `CC1(C)CC(NC(=O)c2ccc(OC[C@@H]3CCCN3)c(Cl)c2)CC(C)(C)N1` [Compound I-410], > 80 µM.

Consider `CC1(C)CC(NC(=O)c2ccc(OC3CCNC3)c(Cl)c2)CC(C)(C)N1` (centres unmarked) [Compound I-411], for which the half-maximal inhibitory concentration (IC50) is > 80 µM.

For the molecule `CC1(C)CC(NC(=O)c2ccc3c(c2)Cc2ccccc2O3)CC(C)(C)N1` [Compound I-412], the IC50 was > 80 µM. As to `CC1(C)CC(NC(=O)c2ccc(N3CCOC(c4ccccc4)C3)c(Cl)c2)CC(C)(C)N1` (centres unmarked) [Compound I-416], the half-inhibitory concentration (IC50) was > 80 µM.

Regarding `CC1(C)CC(NC(=O)c2ccc(Oc3ccccc3C#N)c(Cl)c2)C(F)(F)C(C)(C)N1` (centres unmarked) [Compound I-418], the IC50 lay within 20 to 80 µM.

Consider `CC1(C)CC(NC(=O)c2ccc(Oc3ccccc3C#N)c(Cl)c2)CC(C(=O)O)N1` (centres unmarked) [Compound I-419], for which the IC50 was > 80 µM. The same measure, in the same setting: in the case of `COC(C)c1cccc(Oc2ccc(C(=O)NC3CC(C)(C)NC(C)(C)C3)cc2Cl)c1C#N` (centres unmarked) [Compound I-420] it was < 5 µM; in that of `CC1(C)CC(NC(=O)c2ccc(OC(C#N)c3ccccc3)c(Cl)c2)CC(C)(C)N1` (centres unmarked) [Compound I-421], > 80 µM; in that of `CC(C)NCc1cccc(Oc2ccc(C(=O)NC3CC(C)(C)NC(C)(C)C3)cc2Cl)c1` [Compound I-422], 20 to 80 µM. Same read-out and setting: in the case of `CC1(C)CC(NC(=O)c2ccc(Oc3ccccc3C#N)c(Cl)c2)CC(C)(C)N1CC(=O)O` [Compound I-424] it was > 80 µM. In the case of `CNCc1cccc(Oc2ccc(C(=O)NC3CC(C)(C)NC(C)(C)C3)cc2Cl)c1` [Compound I-425], the IC50 was > 80 µM. Consider `CC(c1ccccc1)c1ccc(C(=O)NC2CC(C)(C)NC(C)(C)C2)cc1` (centres unmarked) [Compound I-426], for which the half-maximal inhibitory concentration (IC50) is > 80 µM. Still for that read-out and setting: the result for `CC(=O)NCc1cccc(Oc2ccc(C(=O)NC3CC(C)(C)NC(C)(C)C3)cc2Cl)c1` [Compound I-430] reads < 5 µM; that for `CC1(C)CC(NC(=O)c2ccc(C(O)c3ccccc3)cc2)CC(C)(C)N1` (centres unmarked) [Compound I-432], > 80 µM. Regarding `CC1(C)CC(NC(=O)c2ccc(Oc3ccccc3C#N)c(Cl)c2)CC(C)(C)C1` [Compound I-433], the half-inhibitory concentration (IC50) is > 80 µM.

Regarding `CC1(C)CC(NC(=O)c2ccc(Oc3ccccc3C#N)c(Cl)c2)C(F)C(C)(C)N1` (centres unmarked) [Compound I-434], the IC50 was in the range of 20 to 80 µM. As for `CC1(C)CC(NC(=O)c2cnc(Oc3cccc(-c4cn[nH]c4)c3C#N)c(Cl)c2)CC(C)(C)N1` [Compound I-435], the IC50 was < 5 µM. Same read-out and setting: in the case of `CC1(C)CC(NC(=O)c2ccc(C3=NCC(=O)Nc4ccccc43)cc2)CC(C)(C)N1` [Compound I-436] it was > 80 µM. Regarding `CC1(C)CC(NC(=O)c2ccc(C3(c4ccccc4)CC3)cc2)CC(C)(C)N1` [Compound I-437], the concentration for half-maximal inhibition (IC50) is > 80 µM. For `CC1(C)CC(NC(=O)N2CCN(Cc3ccccc3C#N)CC2)CC(C)(C)N1` [Compound I-438], the IC50 was > 80 µM. Same read-out and setting: in the case of `CC1(C)CC(NC(=O)c2ccc(Oc3cccc(-c4cn[nH]c4)c3C#N)c(C3CC3)c2)CC(C)(C)N1` [Compound I-439] it was < 5 µM. For the molecule `CC1(C)CC(NC(=O)c2ccc(N3CCOc4ccccc43)cc2)CC(C)(C)N1` [Compound I-440], the IC50 is > 80 µM. For the molecule `CC1(C)CC(NC(=O)N2CCC(Oc3ccccc3C#N)CC2)CC(C)(C)N1` [Compound I-442], the half-inhibitory concentration (IC50) is > 80 µM.

With `CNC(C)c1cccc(Oc2ccc(C(=O)NC3CC(C)(C)NC(C)(C)C3)cc2Cl)c1` (centres unmarked) [Compound I-443], the concentration for half-maximal inhibition (IC50) is 5 to 20 µM. As for `CC1(C)CC(NC(=O)c2ccc(Oc3cccc(CC#N)c3-c3cncnc3)c(Cl)c2)CC(C)(C)N1` [Compound I-444], the IC50 was < 5 µM.

As for `CC1(C)CC(NC(=O)c2ccc(Oc3cccc(-c4ncccn4)c3C#N)c(Cl)c2)CC(C)(C)N1` [Compound I-445], the IC50 was < 5 µM. Turning to `CC1(C)CC(NC(=O)c2ccc(Oc3cccc(CN4CCCCC4=O)c3)c(Cl)c2)CC(C)(C)N1` [Compound I-446], the half-maximal inhibitory concentration (IC50) lay in the range of 5 to 20 µM. Still for that read-out and setting: in the case of `CC1(C)CC(NC(=O)c2ccc(Oc3cccc(CN4CCCC4=O)c3)c(Cl)c2)CC(C)(C)N1` [Compound I-447] it was 5 to 20 µM; in that of `CC1(C)CC(NC(=O)N2CCN(Cc3ccccc3C#N)C(=O)C2)CC(C)(C)N1` [Compound I-448], > 80 µM; in that of `CC1(C)CC(C(=O)Nc2ccc(Oc3cccc(-c4cn[nH]c4)c3C#N)c(Cl)c2)CC(C)(C)N1` [Compound I-449], 5 to 20 µM. As for `CC1(C)CC(NC(=O)c2ccc(OCC3CCCCN3)c(Cl)c2)CC(C)(C)N1` (centres unmarked) [Compound I-450], the IC50 is > 80 µM. With `CC1(C)CC(NC(=O)c2ccc(Oc3cccc(CC#N)c3)c(Cl)c2)CC(C)(C)N1` [Compound I-451], the concentration for half-maximal inhibition (IC50) is < 5 µM.

For the molecule `CC1(C)CC(NC(=O)c2ccc(Oc3ccccc3C#N)c(Cl)c2)CC(C)(C)N1CC(N)=O` [Compound I-452], the IC50 was > 80 µM. As to `COCc1cccc(Oc2ccc(C(=O)NC3CC(C)(C)NC(C)(C)C3)cc2Cl)c1C#N` [Compound I-453], the IC50 is < 5 µM. For the molecule `CC(c1ccccc1C#N)N1CCN(C(=O)NC2CC(C)(C)NC(C)(C)C2)CC1` (centres unmarked) [Compound I-454], the IC50 is > 80 µM. As for `CC(O)c1ccccc1Oc1ccc(C(=O)NC2CC(C)(C)NC(C)(C)C2)cc1Cl` (centres unmarked) [Compound I-455], the IC50 fell in the range of 5 to 20 µM.

As for `CC1(C)CC(C#N)(NC(=O)c2ccc(Oc3cccc(-c4ccnnc4)c3C#N)c(Cl)c2)CC(C)(C)N1` [Compound I-456], the IC50 is < 5 µM. On the same count and under the same terms, the result for `CC1(C)CC(NC(=O)c2ccc(O[C@H]3CCNC3=O)c(Cl)c2)CC(C)(C)N1` [Compound I-457] reads > 80 µM; that for `CNC(=O)Cc1cccc(Oc2ccc(C(=O)NC3CC(C)(C)NC(C)(C)C3)cc2Cl)c1C#N` [Compound I-458], < 5 µM. As to `CC1(C)CC(NC(=O)c2ccc(Oc3ccccc3C#N)c(Cl)c2)CC(C)(C)N1CCO` [Compound I-459], the IC50 was < 5 µM. `N#Cc1ccccc1Oc1ccc(C(=O)NC2CCN(CCN)CC2)cc1Cl` [Compound I-460]: the IC50 was > 80 µM. On the same count and under the same terms, in the case of `CC1CC(NC(=O)c2ccc(Oc3ccccc3C#N)c(Cl)c2)CC(C)(C)N1` (centres unmarked) [Compound I-461] it was 5 to 20 µM; in that of `CC1(C)CC(NC(=O)c2ccc(Oc3cccc(C(C)(C)C#N)c3)c(Cl)c2)CC(C)(C)N1` [Compound I-462], 20 to 80 µM. Same read-out and setting: in the case of `Cc1noc(C)c1-c1cccc(Oc2ccc(C(=O)NC3CC(C)(C)NC(C)(C)C3)cc2Cl)c1C#N` [Compound I-463] it was < 5 µM; in that of `CN(C)C(=O)Cc1cccc(Oc2ccc(C(=O)NC3CC(C)(C)NC(C)(C)C3)cc2Cl)c1C#N` [Compound I-464], > 80 µM. The same measure, in the same setting: the result for `CN1CCC(NC(=O)c2ccc(Oc3cccc(-c4ccnnc4)c3C#N)c(Cl)c2)CC1` [Compound I-465] reads > 80 µM; that for `CC1(C)CC(NC(=O)N2CCC(Oc3ccccc3)C2)CC(C)(C)N1` (centres unmarked) [Compound I-466], > 80 µM.

The values above are taken from US20130310379A1, “MODULATORS OF METHYL MODIFYING ENZYMES, COMPOSITIONS AND USES THEREOF” (CONSTELLATION PHARMACEUTICALS, priority 2010, published 2013).
